From ChEMBL document CHEMBL1201862, “PubChem BioAssay data set” (2004)
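Protocol summary: plate cells (96-well), add compound at 5 concentrations, incubate 48 h, interpolate endpoints linearly. GI50 is the concentration that inhibits growth by half.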 The source made the active and inactive calls. Rule as the data show it: active = GI50 up to about 1.1 µM and inactive = higher.

Experiments:
Assay in all cases: growth of human tumour cells (NCI), 48 h
LOX IMVI = test system: LOX IMVI
HT-29 = test system: HT-29
OVCAR-5 = test system: OVCAR-5
786-0 = test system: 786-0
A549 = test system: A549
RXF 393 = test system: RXF 393
OVCAR-8 = test system: OVCAR-8
UACC-62 = test system: UACC-62
SW-620 = test system: SW-620
NCI/ADR-RES = test system: NCI/ADR-RES
NCI-H226 = test system: NCI-H226
NCI-H23 = test system: NCI-H23
Malme-3M = test system: Malme-3M
SK-MEL-5 = test system: SK-MEL-5
COLO 205 = test system: COLO 205
SK-OV-3 = test system: SK-OV-3
OVCAR-4 = test system: OVCAR-4
HOP-92 = test system: HOP-92
IGROV-1 = test system: IGROV-1

Measured: GI50

CN(C)CCn1c(=O)c2ccc3c4c(nn3CCN(C)C)c3cc(O)ccc3n(c1=O)c24
active: LOX IMVI < 0.0306 µM | HT-29 < 0.01 µM | OVCAR-5 0.0723 µM | 786-0 < 0.01 µM | A549 0.0325 µM | RXF 393 0.281 µM | OVCAR-8 < 0.01 µM | UACC-62 0.172 µM | SW-620 0.0365 µM | NCI/ADR-RES 0.783 µM | NCI-H226 0.126 µM | NCI-H23 0.0855 µM | Malme-3M 0.354 µM | SK-MEL-5 0.319 µM | COLO 205 0.0706 µM

Cc1ccc(N/C(SCc2ccccc2)=C(\C(Cl)=C(Cl)Cl)[N+](=O)[O-])c(C)c1
inactive: HT-29 29.8 µM | OVCAR-5 19.6 µM | 786-0 23.6 µM | A549 27.1 µM | OVCAR-8 18.5 µM | UACC-62 23.6 µM | SW-620 15.6 µM | NCI/ADR-RES 21.2 µM | NCI-H226 45.2 µM | NCI-H23 19.5 µM | SK-OV-3 39.8 µM | OVCAR-4 10.8 µM | Malme-3M 21.4 µM | COLO 205 17.8 µM

C#CCCCC(=C)C[C@@H]1OC(=O)[C@H](C)[C@@H]1O
inactive: LOX IMVI > 100 µM | OVCAR-5 > 100 µM | 786-0 > 100 µM | A549 > 100 µM | RXF 393 > 100 µM | SW-620 > 100 µM | NCI/ADR-RES > 100 µM | NCI-H23 > 100 µM | SK-OV-3 > 100 µM | HOP-92 > 100 µM | OVCAR-4 > 100 µM | SK-MEL-5 > 100 µM | COLO 205 > 100 µM

CN(C)CCNC(=O)Cn1cc([N+](=O)[O-])c(=O)c2ccccc21
inactive: HT-29 > 100 µM | OVCAR-5 > 100 µM | 786-0 > 100 µM | A549 > 100 µM | OVCAR-8 > 100 µM | UACC-62 > 100 µM | SW-620 > 100 µM | NCI/ADR-RES > 100 µM | NCI-H226 > 100 µM | NCI-H23 > 100 µM | SK-OV-3 > 100 µM | Malme-3M > 100 µM | SK-MEL-5 > 100 µM | COLO 205 > 100 µM | IGROV-1 > 100 µM

C#CCOCn1cc(C)c(=O)[nH]c1=O
inactive: LOX IMVI > 100 µM | HT-29 > 100 µM | OVCAR-5 > 100 µM | 786-0 > 100 µM | A549 > 100 µM | OVCAR-8 > 100 µM | UACC-62 > 100 µM | SW-620 > 100 µM | NCI/ADR-RES > 100 µM | NCI-H226 > 100 µM | NCI-H23 > 100 µM | SK-OV-3 > 100 µM | Malme-3M > 100 µM | SK-MEL-5 > 100 µM | COLO 205 > 100 µM | IGROV-1 > 100 µM

O=C1/C(=C\c2ccc(F)cc2)CCOc2c1ccc1ccccc21
inactive: HT-29 17.4 µM | OVCAR-5 18.5 µM | 786-0 23 µM | A549 23.4 µM | RXF 393 13.4 µM | OVCAR-8 12.7 µM | UACC-62 37.2 µM | SW-620 14.4 µM | NCI/ADR-RES 16.3 µM | NCI-H23 12.8 µM | SK-OV-3 36.6 µM | HOP-92 24.9 µM | OVCAR-4 15.3 µM | Malme-3M 16.5 µM | SK-MEL-5 21.2 µM | COLO 205 19 µM

C=C(CO)CC(O)c1cc(OC)ccc1OC (configuration not stated)
inactive: LOX IMVI > 100 µM | HT-29 > 100 µM | OVCAR-5 > 100 µM | 786-0 > 100 µM | A549 > 100 µM | RXF 393 > 100 µM | OVCAR-8 > 100 µM | UACC-62 > 100 µM | SW-620 > 100 µM | NCI-H226 > 100 µM | SK-OV-3 > 100 µM | HOP-92 > 100 µM | OVCAR-4 > 100 µM | Malme-3M > 100 µM | SK-MEL-5 > 100 µM | COLO 205 > 100 µM | IGROV-1 > 100 µM

CCCC1CC(=O)NC(=O)C1C(=O)OC(C)(C)C (configuration not stated)
inactive: LOX IMVI > 100 µM | HT-29 > 100 µM | OVCAR-5 > 100 µM | 786-0 > 100 µM | RXF 393 > 100 µM | OVCAR-8 > 100 µM | UACC-62 > 100 µM | SW-620 > 100 µM | NCI/ADR-RES > 100 µM | NCI-H226 > 100 µM | NCI-H23 > 100 µM | OVCAR-4 > 100 µM | Malme-3M > 100 µM | SK-MEL-5 > 100 µM | COLO 205 > 100 µM | IGROV-1 > 100 µM

O=C1CCC(=O)N1CNc1cccc(NCN2C(=O)CCC2=O)c1
inactive: HT-29 > 100 µM | OVCAR-5 > 100 µM | 786-0 > 100 µM | A549 > 100 µM | RXF 393 > 100 µM | OVCAR-8 > 100 µM | UACC-62 48.5 µM | SW-620 > 100 µM | NCI-H23 > 100 µM | HOP-92 > 100 µM | OVCAR-4 > 100 µM | Malme-3M > 100 µM | SK-MEL-5 > 100 µM | COLO 205 > 100 µM | IGROV-1 87.9 µM
